Results on 64 compounds are retold here after a melting point compilation (Tetko et al.; mined from patent text by program, amines drawn as free bases though some values may be those of a salt).

The melting point is the temperature, or range, at which the solid turns liquid. `Clc1ccc(N2CCC3(CCNCC3)CC2)cc1` yielded a melting point of 95.5 to 97.4 °C.
Compound `OCC1OC(n2cnc3c(NCCc4csc5ccc(Cl)cc45)ncnc32)C(O)C1O` (centres undefined) had a melting point of 167 to 169 °C.
As for `Nc1cnnc(Cl)c1Cl`, the melting point lay in the range of 150 to 151 °C.
As for `N#Cc1ccc(N2CCN(Cc3cnc4c(c3)NC(=O)[C@@H]3CCCN43)CC2)cc1F`, the figure is 251 to 255 °C; as for `Clc1cccc(Cn2cnc3c(-c4ccco4)nc(Cl)nc32)c1`, 196 to 198 °C; as for `COc1cc(C(O)c2ccnc3ccccc23)ccc1OCc1ccccc1` (centres undefined), 117 to 118 °C.
For `CCC(C)NCc1nc(-c2ccc(OC)c(OC)c2)c2cc(OC)c(OC)cc2n1` (centres undefined), the melting point lay within 118 to 120 °C.
Consider `O=C(O)CCc1cnn(-c2ccccc2)c1-c1ccccc1`, for which the melting point lay in the range of 159 to 160 °C.
As for `CCOc1cc(-c2ccc(-c3ccc(N=Nc4ccccn4)c(OCC)c3)o2)ccc1N=Nc1ccccn1`, the figure is 205 to 210 °C; as for `CNC(=O)N1N=C(c2ccc(N)cc2)c2cc(Cl)ccc2CC1C` (centres undefined), 115 to 118 °C.
In turn, `CCOC(=O)CCNCC(O)COc1cccc(C)c1` (centres undefined) showed a melting point of 57 °C.
The compound `Fc1ccc(Cn2c(NCCN3CCC(Nc4nc5ccccc5n4Cc4ccc(F)cc4)CC3)nc3ccccc32)cc1` gave a melting point of 197 °C.
In turn, `N#Cc1c(N2CCc3ccccc3CC2)nc(CCO)n(CCO)c1=O` displayed a melting point of 164 °C.
In turn, `Cc1ccc(S(=O)(=O)NCC(=O)NCc2ccc(C(c3cc(F)ccc3F)S(=O)(=O)c3ccc(Cl)cc3)nc2)cc1` (centres undefined) showed a melting point of 217 to 218 °C.
Take `Clc1cc(COCc2cc(Cl)nc(Cl)c2)cc(Cl)n1`: the melting point came to 69.1 °C.
As for `CCOC(=O)c1cn2c3c(cc(Br)cc3c1=O)CC2(C)C`, the melting point is 227 to 228 °C.
`CCN(CC)CCNc1ccc(NCCNCCO)c2c1C(=O)c1c(O)ccc(O)c1C2=O`: the melting point lay in the range of 165 to 167 °C.
As for `CCN(C)C(=O)c1cnn(-c2ccc(Cl)cc2)c1-c1ccc(OC)c(OC)c1`, the figure is 110 °C; as for `Oc1ccc2c(c1)CC(CCc1ccccc1)O2` (centres undefined), 56 to 58 °C; as for `CCCSC(C)(C(=O)O)c1ccc2oc(Cc3nc(-c4ccccc4)oc3C)cc2c1` (centres undefined), 169 to 170 °C.
The same measure for `Cc1c(C)c2c(c(C)c1O)CCC(C)(C(=S)N1CCN(c3ccc(Cl)cc3)CC1)O2` (centres undefined): 154 to 155 °C; for `CCCN/C(C)=C(/C#N)C(N)=S`: 149 to 151 °C; for `CN(c1ccoc1)c1n[nH]c2ncnc(Nc3cccc(Cl)c3)c12`: 207 to 209 °C.
Compound `COc1cccc(-c2ccc3ccccc3c2Oc2ccc(C=O)cc2)c1` showed a melting point of 125 to 126 °C.
In the case of `COc1ccc(CNC(=O)c2sc3ccccc3c2Br)cc1`, the melting point was in the range of 123 to 124 °C.
As for `CCOC(=O)c1cc(Cl)cc(N)c1Cl`, the melting point is 63 to 65 °C.
In turn, `COCCNC(=O)c1cc(-c2cccc3cc(Cc4cccc(C(F)(F)F)c4)sc23)ccc1F` registered a melting point of 94 to 95 °C.
Compound `CN(CC(=O)Nc1ccc2[nH]ncc2c1)Cc1ccccc1` registered a melting point of 159 to 160 °C.
In the case of `COCC1CN(c2ccc(OCCC(C)O)cc2)C(=O)O1` (centres undefined), the melting point was determined as 58 °C.
In the case of `Cc1ccc(Oc2cnc(C#N)c(C#N)n2)cc1`, the melting point was in the range of 126 to 127 °C.
`COC(=O)c1ccc(Cc2cccc3ccc(N)cc23)c(OC)c1` had a melting point of 138 to 140 °C.
For the compound `COc1ccc(C2CCCN2S(=O)(=O)c2ccc(C)cc2)cc1` (racemic), the melting point came out at 122 °C.
Compound `O=S(=O)(Nc1ccc(Oc2ccc3ncccc3c2)cc1)c1cccc(C(F)(F)F)c1` yielded a melting point of 142 to 143 °C.
Consider `CCNc1nc(Cl)cc(NC2CC2)n1`, for which the melting point fell in the range of 86 to 88 °C.
In turn, `COC(=O)C=Cc1ccc(OC)cc1` gave a melting point of 85 to 86 °C.
The same measure for `O=[N+]([O-])c1sccc1-c1ccc(Cl)cc1`: 108 to 110 °C.
Regarding `CNC(=O)N(O)C(C)c1ccc(-n2c(C)ccc2C)cc1` (centres undefined), the melting point is 131 to 133 °C.
Regarding `CC(C)(C)C(OC(=O)Nc1ccccc1)C(=CC1CCCCC1)n1cncn1` (centres undefined), the melting point is 156 °C.
The compound `Cn1c(=O)c2ccccc2n(Cc2ccc(F)cc2)c1=N` gave a melting point of 135 to 137 °C.
For the compound `O=C1CC(=O)N(c2ccccc2)c2cc(Cl)ccc2N1Cc1ccccc1`, the melting point lay within 173 to 175 °C.
`COC(=O)c1ccccc1OCc1ccc(COc2ccccc2C(=O)OC)cc1` showed a melting point of 115 to 120 °C.
`O=C(CCCCCCNC(=O)C(=O)c1cn2c3c(cccc13)CCC2)NOC1CCCCO1` (centres undefined) returned a melting point of 140 to 142 °C.
`CC(C)(O/N=C(\C(=O)Sc1nc2ccccc2s1)c1csc(N)n1)C(=O)OC(c1ccccc1)c1ccccc1`: the melting point came to 110 °C.
The same measure for `O=C(CCc1ccccc1C(=O)O)Nc1cccc(/C=C/c2nc(C3CCC3)cs2)c1`: 238 to 239 °C; for `COc1ccc(OCCOc2ccc(C(=O)C(=O)O)cc2)cc1OC`: 140 to 141 °C; for `OCC(CC(F)(F)F)Nc1nc(-c2ccc(Br)cc2)cs1` (centres undefined): 120 to 121 °C.
`OC(CNCCc1cc(Br)sc1Br)c1ccccc1` (centres undefined): the melting point stood at 94 °C.
Consider `COc1nc(NC(C)C)nc(NC2CC2)n1`, for which the melting point lay in the range of 77 to 80 °C.
The same measure for `CC(C)(C)n1c(=O)c(=O)[nH]c2ccccc21`: > 300 °C.
As for `N#Cc1c(N2CCCCC2)cc(-c2ccccc2)c2c1-c1ccccc1C2=O`, the melting point is 166 to 168 °C.
Regarding `COc1c(C)cc2c(c1C)C(C)(C)CN2C(=O)C(C)(C)C`, the melting point fell in the range of 103 to 104 °C.
The same measure for `CCOC(=O)c1cc(CC)sc1Nc1ccc(F)cc1N`: 82 to 84 °C; for `CC(CCCO)C1CCC2C3C(O)CC4CC(O)CCC4(C)C3CC(O)C12C` (centres undefined): 226 to 227 °C; for `COC(=O)c1cscc1NC(=O)C(F)Cl` (centres undefined): 51 to 54 °C.
On to `CNC(=O)N1CC(Oc2ccc(Cl)c(Cl)c2)C1`, for which the melting point lay in the range of 158 to 159 °C.
The same measure for `N#CC1=C(c2cccs2)Nc2n[nH]cc2C1c1cccc2ccccc12` (centres undefined): 214 °C; for `CCCN(C1CCN(C)CC1)S(=O)(=O)c1ccc(Nc2nccc(Nc3ccc(F)cc3)n2)cc1`: 232 °C.
As for `N=C(Nc1ccccc1)Nc1ncccc1OCc1ccc(Cl)cc1`, the melting point lay in the range of 173 to 174 °C.
The same measure for `COc1ccc(C#Cc2ccc(OC3CN4CCC3CC4)nn2)cc1` (centres undefined): 163 to 165 °C.
With `COc1ccc2ccc3ccc(C=O)c4ccc1c2c34`, the melting point fell in the range of 135 to 136 °C.
As for `CC(=O)Nc1ccc(C(=N)Nc2cc(NC(=O)/C=C/c3ccccc3C(F)(F)F)c(F)cc2F)cc1`, the figure is 180 to 185 °C.
As to `CC(C)(C)c1cc(OCCCCCc2nnn[nH]2)cc(C(C)(C)C)c1O`, the melting point lay in the range of 140 to 141 °C.
For the compound `CC1(CN2CCC(OCc3ccc(Cl)cc3)CC2)Cn2cc([N+](=O)[O-])nc2O1` (centres undefined), the melting point lay in the range of 129 to 130 °C.
For `Nc1ncc2c(n1)CCC(CNC(=O)[C@@H]1CCCN1C(=O)[C@@H](CC1CCCCC1)NS(=O)(=O)Cc1ccccc1)C2` (some centres undefined), the melting point lay within 118 to 121 °C.
